Measured values taken from patent US20140315781A1, “METHODS OF TREATING FATTY LIVER DISEASE WITH HELMINTH-DERIVED GLYCAN-CONTAINING COMPOUNDS” (priority 2011, published 2014).

What was measured:
[1] = tested on: human FXRα promoter 1 (FXRα1/α2); test: Luciferase reporter assay, FXRα promoter 1, in HepG2 cells; type: cell-based; conditions: with or without LNnT, p<0.05, FIG. 4b
Description: HepG2 cells, obtained from ATCC (#HB-8065), were cultured in Eagle's minimal essential media supplemented with non-essential amino acids, L-glutamine, sodium pyruvate, sodium bicarbonate, 10% fetal bovine serum, and antibiotics.
(§1) The upstream promoter 1 and downstream promoter 2 regions of the human FXRα gene were cloned into the pGL3-basic luciferase reporter construct and transfected into HepG2 cells in a 96-well format or primary hepatocytes in a 24-well format using a luciferase system (Promega). A β-galactosidase reporter construct was used as a transfection control. Promoters 1 and 2 of the human FXRα gene were PCR amplified and cloned into the pGL3-basic luciferase reporter (Promega). Point mutations were introduced using the site-directed mutagenesis kit (Stratagene).
Both human and mouse FXRα contain two major promoters (FIG. 2c). […] To examine the signalling pathways through which LNFPIII regulates FXRα activity, the activities of luciferase reporters driven by upstream (promoter 1) or downstream (promoter 2) regulatory regions were examined in HepG2 cells (human hepatoma cells). Reporters driven by a 2 kb fragment of human FXRα promoter 1 or a 0.13 kb fragment of human FXRα promoter 2 were transfected into HepG2 cells. Twenty-four hours after transfection, cells were treated with or without LNFPIII (20 μg/ml) or SEA (2 μg/ml) for an additional 24 hours.

[2] = tested on: primary mouse hepatocytes
[3] = tested on: human FXRα promoter 2 (FXRα3/α4); test: Luciferase reporter assay, FXRα promoter 2, in HepG2 cells; type: cell-based
From the text: as §1
To examine the signalling pathways through which LNFPIII regulates FXRα activity, the activities of luciferase reporters driven by upstream (promoter 1) or downstream (promoter 2) regulatory regions were examined in HepG2 cells (human hepatoma cells). Reporters driven by a 2 kb fragment of human FXRα promoter 1 or a 0.13 kb fragment of human FXRα promoter 2 were transfected into HepG2 cells. Twenty-four hours after transfection, cells were treated with or without LNFPIII (20 μg/ml) or SEA (2 μg/ml) for an additional 24 hours.
To gain insight into the region of promoter 2 responsible for promoter activation, the minimal LNFPIII responsive region was determined through a series of promoter deletion mutants.

Erk [4] = test: Immunoblot of phospho-Erk in primary hepatocytes; type: cell-based, mouse; conditions: PD98059 1 hour prior to overnight LNFPIII, FIG. 3g
Description: FIG. 3G (left panel) is an immunoblot for levels of phospho-Erk (p-Erk) and total Erk (t-Erk) in primary hepatocytes treated with vehicle, LNFPIII, PD90859, or LNFPIII+PD98059. Cells were pretreated with PD98059 for 1 hour prior to overnight LNFPIII treatment. Actin levels served as a loading control. FIG. 3G (right panel) is a bar graph depicting the densitometric analysis of the immunoblot from FIG. 3G (left panel). Results are presented as mean±SEM.
FIG. 3H is an immunoblot for levels of p-Erk and t-Erk in primary hepatocytes treated with vehicle, SEA, or SEA+PD98059. Cells were pretreated with PD98059 for 1 hour prior to overnight SEA treatment. Actin levels served as a loading control.
(§2) For Western blot analyses, tissue and cell lysates were prepared in lysis buffer (20 mM Tris-HCl, 100 mM NaCl, 1 mM EDTA, NP-40, glycerol, PMSF, and DTT) in the presence of protease and phosphatase inhibitors. The four FXRα (NR1H4) isoforms were based on previous reports, which were originally designated as FXRα1/α2 and FXRβ1/β2 (Huber et al., Gene 2002; 290:35-43; Zhang et al., JBC 2003; 278:104-10). The latter were renamed FXRα3/α4 to avoid confusion with rodent FXRβ (NR1H5) (Lefebvre et al., Physiol Rev 2009; 89:147-91).

[5] = tested on: primary mouse hepatocytes; conditions: PD98059 1 hour prior to overnight LNFPIII, FIG. 3i
[6] = tested on: Male C57BL/6J mice on a high-fat, high carbohydrate diet; test: High fat diet-induced steatosis and liver function in mice (histology, liver triglycerides, circulating AST/ALT); type: in vivo; conditions: vs vehicle
Description: (§3) Male C57BL/6J mice (8-10 weeks of age) were placed on a high-fat, high carbohydrate diet (F3282, Bio-Serv) for the duration for the experiments. After 6 weeks of the special diet, mice were intraperitoneally injected 2 times per week with 25 μg of dextran (vehicle) or 25 μg of LNFPIII conjugated with dextran (LNFPIII-dex). A second cohort was treated with 0.9% NaCl or SEA dissolved in 0.9% NaCl (25 μg/mouse/twice a week). Metabolic studies started 4 weeks after LNFPIII or SEA treatment and were conducted after 6 hrs of fasting. Animals were sacrificed at the 6th week of treatment for serum and tissue collection. Most experiments were repeated in two cohorts (n=4-7/treatment). Body weight and food intake were monitored weekly.
Circulating levels of ALT and AST, markers of overall liver function, were measured using commercial kits as described in Liu et al. (JBC 2011; 286:1237-47).
The Dana Farber/Harvard Cancer Center Research Pathology Cores provided all histological services and preliminary assessments by a pathologist. Briefly, tissues were collected from animals and fixed in 10% formalin (liver) for 48 hours. Fixed samples were rinsed in PBS and sent to the histology core to be paraffin embedded, sectioned, and stained with hematoxylin and eosin according to standard procedures. A staff pathologist analyzed the samples for signs of inflammation, fatty liver, fibrosis, and other pathologies associated with the liver.
In this example, the ability of LNFPIII or SEA to prevent high fat diet-induced steatosis and preserve liver function was examined. Mice were injected with either vehicle (dextran, 25 μg), LNFPIII conjugated to dextran (25 μg), or SEA twice a week (n=5 for each group) as described in the Methods section.
To determine whether overall liver function was affected by LNFPIII treatment, circulating levels of AST and ALT were also examined.

livers of mice = conditions: mouse, in vivo
FXRα−/− mice = test: LNFPIII treatment of FXRα−/− mice (liver mRNA, hepatic triglyceride, serum AST/ALT); type: in vivo
From the text: Male C57BL/6J mice (8-10 weeks of age) were purchased from The Jackson Laboratory (Bar Harbor, Me.). FXR α−/− mice (both in the C57BL/6J background) were obtained from The Jackson Laboratory. All animal studies were approved by the Harvard Medical Area Standing Committee on Animals.
as §3
Furthermore, to determine whether FXRα mediated the effects of LNFPIII on lipogenesis and fatty acid oxidation, primary hepatocytes were isolated from wild type or FXRα^−/− mice, cultured, and tested for de novo lipogenesis and fatty acid oxidation.

Erk [7] = test: Immunoblot of phospho-Erk in liver lysates of treated mice; type: in vivo; conditions: FIG. 3f
Description: FIG. 3F (top panel) is an immunoblot for levels of phosphor-Erk (p-Erk) and total Erk (t-Erk) in liver lysates prepared from vehicle or LNFPIII treated mice (n=5, showing representative 3 samples/treatment). Actin levels served as a loading control. FIG. 3F (bottom panel) is a bar graph depicting the densitometric analysis of the immunoblot from FIG. 3F (top panel). Results are presented as mean±SEM. *p<0.05.
as §2

[8] = high fat diet mice, p<0.05, FIG. 1d/1e
[9] = FIG. 2d, primary hepatocytes treated for 24 hours
[10] = FIG. 2d, primary hepatocytes treated for 24 hours, p<0.05

For `CC(=O)N[C@H]1[C@H](O[C@H]2[C@@H](O)[C@@H](CO)O[C@@H](O[C@H]3[C@H](O)[C@@H](O)C(O)O[C@@H]3CO)[C@@H]2O)O[C@H](CO)[C@@H](O[C@@H]2O[C@H](CO)[C@H](O)[C@H](O)[C@H]2O)[C@@H]1O` (mixture of isomers) [LNnT, lacto-N-neotetraose], which “activity of the FXRα1/α2 promoter in a luciferase assay” value [1] is on record?
The value was “significantly increased”.

What about the “lipogenesis in cultured primary hepatocytes” value [2] of the same compound?
The value was “blocked lipogenesis in cultured primary hepatocytes in a dose-dependent manner”.

With `COc1cccc(-c2cc(=O)c3ccccc3o2)c1N` [PD98059, reference compound] as the compound, how does the “responsiveness of the FXRα promoter 2 to LNFPIII in presence of PD98059” value [3] read?
Its value is “completely abolished”.

And the “activation of Erk in response to LNFPIII in presence of PD98059” value (Erk [4])?
Its value is “completely abolished”.

And the “ability of LNFPIII to suppress lipid synthesis in presence of PD98059” value [2]?
The value was “completely abolished”.

What about the “ability of LNFPIII to increase β-oxidation in presence of PD98059” value [5] of the same compound?
Its value is “completely abolished”.

What does the source list for lacto-N-fucopentaose III [LNFPIII]?
high fat diet-induced hepatic lipid accumulation (histology) ([6]; 25 μg i.p. twice a week, 6 weeks, FIG. 1a): less high fat diet-induced hepatic lipid accumulation; levels of triglycerides in livers ([6]; 25 μg twice a week, p<0.05, FIG. 1b): significantly lower levels; circulating levels of ALT [6, 8]: significantly reduced levels; circulating levels of AST [6, 8]: significantly reduced levels; ACC1/2 mRNA in livers (livers of mice): significantly reduced; Arg1 (M2 marker) mRNA in liver tissue (livers of mice): significantly higher levels; F4/80 mRNA in liver tissue (livers of mice): significantly lower levels; FAS mRNA in livers (livers of mice): significantly reduced; IL-1β mRNA in liver tissue (livers of mice): unchanged; IL-6 mRNA in liver tissue (livers of mice): significantly lower levels; Mgl1 (M2 marker) mRNA in liver tissue (livers of mice): significantly higher levels; SCD1 mRNA in livers (livers of mice): significantly reduced; SREBP-1c mRNA in livers (livers of mice): significantly reduced; β-oxidation gene expression in livers (livers of mice): did not affect; reduction in serum ALT concentration, wild type vs FXR−/− mice (FXRα−/− mice; FIG. 2i, p<0.05): required FXRα expression; reduction in serum AST concentration, wild type vs FXR−/− mice (FXRα−/− mice; FIG. 2i, p<0.05): required FXRα expression; reduction in hepatic triglyceride content, wild type vs FXR−/− mice (FXRα−/− mice; FIG. 2h, p<0.05): required FXRα expression; Acc1 mRNA expression in FXRα−/− mice (FXRα−/− mice; livers, FIG. 2f): did not reduce; Acc2 mRNA expression in FXRα−/− mice (FXRα−/− mice; livers, FIG. 2f): did not reduce; Fas mRNA expression in FXRα−/− mice (FXRα−/− mice; livers, FIG. 2f): did not reduce; Scd1 mRNA expression in FXRα−/− mice (FXRα−/− mice; livers, FIG. 2f): did not reduce; Srebp mRNA expression in FXRα−/− mice (FXRα−/− mice; livers, FIG. 2f): did not reduce; activation of FXRα promoter 2 reporter with mutated overlapping AP-1 sites (site 3) ([3]; HepG2, site-directed mutagenesis, FIG. 3d, 3e): two overlapping AP-1 sites were required for the activation; Erk phosphorylation in liver (Erk [7]): increased; ability of LNFPIII to suppress lipid synthesis in presence of PD98059 [2]: dependent on Erk activity and FXRα; lipogenesis in primary hepatocytes ([2]; 20 μg/ml, 24 hours): significantly suppressed; ability of LNFPIII to increase β-oxidation in presence of PD98059 [5]: dependent on Erk activity and FXRα; β-oxidation gene expression in primary hepatocytes (primary hepatocytes): did not affect; FXRα1/α2 mRNA expression (primary hepatocytes; [9]): remained unchanged; LXRα mRNA expression (primary hepatocytes; [9]): remained unchanged; BSEP transcripts (primary hepatocytes; [10]): significantly upregulated; OATP transcripts (primary hepatocytes; [10]): significantly upregulated; PLTP transcripts (primary hepatocytes; [10]): significantly upregulated; SHP transcripts (primary hepatocytes; [10]): significantly upregulated; FXRα3/α4 transcripts (primary hepatocytes; FIG. 2d, primary hepatocytes treated for 24 hours, vs vehicle, p<0.05): significantly upregulated
